Here are results for 16 molecules from patent US6046239A, “Anthranilic acid analogs” (American Home Products Corporation, priority 1998, dated 2000).

The subject of experiment [1] is Isolated Rat Bladder Strips. The experiment is described as follows: Inhibition of contractions in isolated rat bladder strips. The following applies: for IC50: contractions enhanced by additional 15 mM KCl, read-out: IC50 /μM Bladder (B); for IC50 (A)/ IC50 (B): ratio aorta/bladder, indication of selectivity. The class given is cell-based. The protocol:
Sprague-Dawley rats (150-200 g) are rendered unconscious by CO2 asphyxiation and then euthanized by cervical dislocation. […] The bladder is opened and then cut into strips 1-2 mm in width and 7-10 mm in length. The strips are subsequently suspended in a 10 mL tissue bath under an initial resting tension of 1.5 g. The strips are held in place by two surgical clips one of which is attached to a fixed hook while the other is attached to an isometric force transducer. […] The carbachol is then washed out and the tissue allowed to relax to its resting level of activity. Following a further 30 min period of recovery an additional 15 mM KCl are introduced into the tissue bath. […] Following stabilization of this enhanced level of contractile activity, incremental increases in the concentration of test compound or vehicle are introduced into the tissue bath. Contractile activity is measured for each compound or vehicle concentration during the last minute of a 30 minute challenge.

A further experiment concerns Aorta. In words: Inhibition of contractions in aorta (indication of selectivity). The experiment is classed as cell-based. The following applies: aorta.
In experiment [2] the test system is hypertrophied bladder (detrussor) smooth muscle. In words: Inhibition of spontaneous contractions in vivo, hypertrophied rat bladder model. The following applies: 30 mg/kg i.v. An excerpt: In addition, we tested the ability of compounds to inhibit the hyperactivity of hypertrophied bladder (detrussor) smooth muscle in conscious female rats with hypertrophied bladders and thereby alleviate urinary incontinence in rats according to the following protocol described by Malmgrem (A. Malmgrem, K. E. Andersson, C. Sjogren, P. O. Andersson, Effects of Pinacidil and Cromakalim (BRL 34915) on Bladder Function in Rats with Detrusor Instability, J. Urol. 142:1134, 1989.):
Female Sprague-Dawley rats, ranging in weight from 190-210 g are used. Up to 25 animals are prepared each time. After development of bladder hypertrophy 4-8 animals are used per test.
Compounds are dissolved in PEG-200 and administered by gastric gavage or intraveneously in a volume of 5 mL/kg. For primary screening all drugs are administered at the arbitrary dose of 10 mg/kg p.o. to groups of 4 rats.
The animals are anesthetized with halothane. […]
The following urodynamic variables are recorded:
The mean value of each variable is calculated before and after compound administration. For each compound the changes in the variables measured are compared to the values obtained before treatment and expressed as percent inhibition. The data are also subjected to 2-way analysis of variance to determine significant (p<0.05) changes in the variable measured. […]

The target in experiment [3] is T1, calcium-dependent large conductance potassium channels (maxi K^+) (Rattus norvegicus, UniProt Q62976).
T1 construct: endogenous in cells; host or cells: freshly isolated rat detrusor (urinary bladder smooth muscle) cells
T1 sequence (Q62976 whole entry): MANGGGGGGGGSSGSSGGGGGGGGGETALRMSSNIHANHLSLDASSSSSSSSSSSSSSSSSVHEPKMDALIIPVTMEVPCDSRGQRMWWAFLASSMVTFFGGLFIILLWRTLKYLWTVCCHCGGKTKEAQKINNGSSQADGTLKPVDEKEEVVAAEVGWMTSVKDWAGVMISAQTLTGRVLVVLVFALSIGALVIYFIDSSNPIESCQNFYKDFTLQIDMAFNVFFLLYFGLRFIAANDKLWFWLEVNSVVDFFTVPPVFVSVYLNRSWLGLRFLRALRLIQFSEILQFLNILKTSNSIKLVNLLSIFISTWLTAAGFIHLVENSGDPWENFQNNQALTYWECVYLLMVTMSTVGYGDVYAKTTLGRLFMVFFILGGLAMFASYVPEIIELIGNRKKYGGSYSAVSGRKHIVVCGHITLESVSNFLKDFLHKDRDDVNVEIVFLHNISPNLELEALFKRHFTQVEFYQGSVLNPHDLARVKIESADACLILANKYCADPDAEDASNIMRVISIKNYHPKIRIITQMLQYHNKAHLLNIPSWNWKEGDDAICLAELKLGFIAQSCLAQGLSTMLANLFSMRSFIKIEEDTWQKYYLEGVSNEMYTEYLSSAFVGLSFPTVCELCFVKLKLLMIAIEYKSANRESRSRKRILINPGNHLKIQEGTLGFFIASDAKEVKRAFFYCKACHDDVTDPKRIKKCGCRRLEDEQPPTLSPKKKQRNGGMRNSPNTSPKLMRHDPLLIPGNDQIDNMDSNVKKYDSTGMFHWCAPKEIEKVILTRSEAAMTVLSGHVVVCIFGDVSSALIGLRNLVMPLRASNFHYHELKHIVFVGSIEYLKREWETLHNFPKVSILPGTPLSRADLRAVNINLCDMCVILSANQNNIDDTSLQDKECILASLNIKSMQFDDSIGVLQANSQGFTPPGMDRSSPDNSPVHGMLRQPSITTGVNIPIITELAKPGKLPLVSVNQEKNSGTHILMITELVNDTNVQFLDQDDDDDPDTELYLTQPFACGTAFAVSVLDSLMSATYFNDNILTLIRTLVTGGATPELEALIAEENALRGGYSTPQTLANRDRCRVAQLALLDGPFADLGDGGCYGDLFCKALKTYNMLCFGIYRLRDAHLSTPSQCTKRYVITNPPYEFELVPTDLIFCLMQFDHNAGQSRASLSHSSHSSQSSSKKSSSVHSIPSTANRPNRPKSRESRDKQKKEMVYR
T1 sequence (P97678 whole entry partner): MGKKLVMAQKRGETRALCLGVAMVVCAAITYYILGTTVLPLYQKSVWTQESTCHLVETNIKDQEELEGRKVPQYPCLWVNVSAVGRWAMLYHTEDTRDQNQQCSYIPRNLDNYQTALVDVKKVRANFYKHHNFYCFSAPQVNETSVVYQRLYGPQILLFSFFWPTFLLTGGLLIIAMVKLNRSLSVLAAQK
In words: Potassium channel activation, whole cell patch clamp in isolated rat detrusor cells. The experiment is classed as cell-based. To be noted: glyburide 5 μM added to the superfusate; data not shown. How it is done:
Potassium channel activation by compounds of the present invention was established by examining the effect of the compound of Example 1 on calcium-dependent large conductance potassium channels (maxi K^+) as follows:
Rat detrusor cells were isolated in a manner previously described for guinea-pig detrusor (Sheldon and Argentieri, 1995). Male Sprague-Dawley rats (200-400 grams) were euthanized by CO2 inhalation and exsanguination. Their urinary bladders were rapidly removed and placed in 37° C. physiological solution with the following composition (mM): Na glutamate (80.0), NaCl (54.7), KCl (5.0), NaHCO3 (25.0), MgCl2.2H2 O (2.5), D-glucose (11.8) and CaCl2 (0.2) gassed with CO2 --O2, 95%/5% for a final pH of 7.4. The dome of the bladder was isolated from the trigon region and the mucosa was removed. This tissue was then cut into 2-3 mm wide strips and placed in fresh buffer for 1 hour. Tissues were then transferred into 10.0 ml of an isolation buffer containing the above composition plus collagenase type VIII (1.0 mg/ml) and pronase (0.25 mg/ml). After 10 minutes the isolation buffer was replaced with fresh isolation buffer for an additional 10 min. […]
Whole cell recordings were made using broken patch assess. […] After stability was achieved control currents were recorded. […] Currents were recorded for 5 to 10 minutes or until compound effects reached steady state. […]
In general terms: In patch-clamp work, channel activity is measured electrically.

Setting [4] is: Rattus norvegicus, isolated rat bladder strips.
Setting [5] is: isolated rat bladder strips, lithium salt hemihydrate.

Each structure is given as a SMILES string. Counter-ions that a name gives are not always drawn. Like-named read-outs stand apart in the source and are kept apart here.

One may read the inhibition as the relative decrease from the control value, in per cent. Take `CCN(CC)C(=O)COC(=O)c1ccccc1NC(=O)/C(C)=C/c1ccc(C(F)(F)F)cc1` [Example 14, (E)-2-[2-Methyl-3-(4-trifluoromethyl-phenyI)-acryloylamino]-benzoic acid diethylcarbamoylmethyl ester]: the inhibition at 30 µM in experiment [1] (30 μM, isolated rat bladder strips, read-out: I = Percent inhibition at 30 μM) was found to be 35.6 ± 5%. In addition, in experiment [1] (setting [4]), the IC50 came to 10.8 ± 0.6 µM.
With `C/C(=C\c1ccc(C(F)(F)F)cc1)C(=O)Nc1cc(Cl)ccc1C(=O)O` [Example 11, (E)-4-Chloro-2-[2-methyl-3-(4-trifluoromethyl-phenyl)-acryloylamino]-benzoic acid lithium salt hemihydrate], the IC50 in experiment [1] (setting [5]) turned out to be 3.45 ± 0.75 µM.
Consider `C=C(CC(=O)Nc1ccccc1C(=O)O)c1ccc(C(F)(F)F)cc1` [Example 6, 2-[3-(4-Trifluoromethyl-phenyl)-but-3-enoylamino]-benzoic acid], for which the IC50 in experiment [1] (setting [4]) amounted to 18.1 ± 4.2 µM.
As to `COc1ccc(/C=C/C(=O)Nc2ccccc2C(=O)O)cc1OC` [Tranilast, reference compound], the IC50 is 14.4 ± 4.5 µM in experiment [1] (setting [4]) and 15.6 ± 8.96 µM with Aorta. Besides, the “smooth muscle relaxant potency and bladder selectivity” value in experiment [1] (bladder tissue over vascular tissue, Table 1) is “not to be a potent or bladder selective smooth muscle relaxant”.
Take `O=C(/C=C/c1ccc(Br)cc1)Nc1ccccc1C(=O)O` [Example 3, (E)-2-[3-(4-Bromo-phenyl)-acryloylamino]-benzoic acid]: the results for the IC50 (in experiment [1] (setting [4]); in the experiment on Aorta) were 4.9 ± 2.6 µM and 53.5 ± 7 µM, respectively. Also, the “IC50 (A)/ IC50 (B)” value in experiment [1] is recorded as 11.
As to `C/C(=C\c1ccc(C(F)(F)F)cc1)C(=O)Nc1ncccc1C(=O)O` [Example 12, (E)-2-[2-Methyl-3-(4-trifluoromethyl-phenyl)-acryloylamino]-nicotinic acid], in experiment [1] (setting [4]), the IC50 stood at 11.4 ± 3.8 µM.
Turning to `C/C(=C\c1ccc(C(F)(F)F)cc1)C(=O)Nc1ccc(Cl)cc1C(=O)O` [Example 9, (E)-5-Chloro-2-[2-methyl-3-(4-trifluoromethyl-phenyl)-acryloylamino]-benzoic acid lithium salt hemihydrate], the results for the IC50 (in experiment [1] (setting [5]); in the experiment with Aorta (lithium salt hemihydrate)) were 0.52 ± 0.24 µM and 2.76 ± 1.63 µM, respectively. Further, the “IC50 (A)/ IC50 (B)” value in experiment [1] (lithium salt hemihydrate) came to 5.31. Moreover, in experiment [2], the “% Red (F): percent reduction in the total number of spontaneous contractions” value is -71 ± 6%.
Turning to `COc1ccc(NC(=O)/C(C)=C/c2ccc(C(F)(F)F)cc2)c(C(=O)O)c1` [Example 13, (E)-5-Methoxy-2-[2-methyl-3-(4-trifluoromethyl-phenyl)-acryloylamino]-benzoic acid], the IC50 in experiment [1] (setting [4]) worked out at 9.6 ± 7.4 µM.
For `C/C(=C\c1ccc(C(F)(F)F)cc1)C(=O)Nc1ccccc1C(=O)O` [Example 1, Step 3, (E)-2-[2-Methyl-3-(4trifluoromethyl-phenyl)-acryloylamino]-benzoic acid], the IC50 in experiment [1] (setting [4]) stood at 3.7 ± 2.1 µM; in the experiment on Aorta, 61.2 ± 9.2 µM. Further, the “IC50 (A)/ IC50 (B)” value in experiment [1] is 16.5.
With `O=C(CCc1ccc(C(F)(F)F)cc1)Nc1ccccc1C(=O)O` [Example 2, 2-[3-(4-Trifluoromethyl-phenyl)-propionylamino]-benzoic acid], the IC50 worked out at 14.1 ± 1.77 µM in experiment [1] (setting [4]) and 118 ± 27.6 µM in the experiment with Aorta. In addition, the “IC50 (A)/ IC50 (B)” value in experiment [1] stood at 8.4.
On to `C/C(=C\C(=O)Nc1ccccc1C(=O)O)c1ccc(C(F)(F)F)cc1` [Example 7, (E)-2-[3-(4-Trifluoromethyl-phenyl)-but-2-enoylamino]-benzoic acid sodium salt], for which the IC50 in experiment [1] (isolated rat bladder strips) was found to be 7.4 ± 4 µM.
As for `C/C(=C\c1ccc(C(F)(F)F)cc1)C(=O)Nc1cc(Cl)ccc1C(=O)O` [Example 10, (E)-4-Chloro-2-[2-methyl-3-(4-trifluoromethyl-phenyl)-acryloylamino]-benzoic acid], the IC50 in experiment [1] (isolated rat bladder strips) worked out at 1.44 ± 0.85 µM; with Aorta, 6.93 ± 2.4 µM. In experiment [1], the “IC50 (A)/ IC50 (B)” value was determined as 4.81.
With `O=C(/C=C/c1ccc(C(F)(F)F)cc1)Nc1ccccc1C(=O)O` [Example 5, (E)-2-[3[(4-Trifluoromethyl-phenyl)-acryloylamino]-benzoic acid lithium salt hemihydrate], the IC50 in experiment [1] (setting [5]) came out at 5.3 ± 2.8 µM; in the experiment on Aorta (lithium salt hemihydrate), 146 ± 49 µM. In addition, the “IC50 (A)/ IC50 (B)” value in experiment [1] (lithium salt hemihydrate) was determined as 27.5.
For the molecule `COc1ccc(Cl)cc1C(=O)NCCc1ccc(S(=O)(=O)NC(=O)NC2CCCCC2)cc1` [glyburide, reference compound], the “effect of glyburide on outward current” value in experiment [3] is “no effect”.
`O=C(/C=C/c1ccc(C(F)(F)F)cc1)Nc1ccccc1C(=O)O` [Example 4]: the IC50 is 3.37 ± 0.59 µM in experiment [1] (setting [4]) and 39.5 ± 12 µM in the experiment on Aorta. The “IC50 (A)/ IC50 (B)” value in experiment [1] is recorded as 11.7.
With `C/C(=C\c1ccc(C(F)(F)F)cc1)C(=O)Nc1ccc(Cl)cc1C(=O)O` [Example 8], the results for the IC50 (in experiment [1] (isolated rat bladder strips); in the experiment with Aorta) were 1.18 ± 0.45 µM and 4.23 ± 0.66 µM, respectively. Further, the “IC50 (A)/ IC50 (B)” value in experiment [1] was 3.58.
